From patent publication US20230052453A1, “COMPOSITIONS AND METHODS FOR RELIEVING EFFECTS OF ALCOHOL CONSUMPTION” (MOXY DISTRIBUTION, INC., priority 2021, published 2023)

Experiments:
[1] = cited from earlier work
[2] = test system: alcohol dehydrogenase (ADH) and acetaldehyde dehydrogenase (ALDH); conditions: cited from earlier work
[3] = Blood alcohol content (BAC) of participants after alcoholic drinks; type: in vivo, human; conditions: half dose 30 minutes prior to drinking
Description: Participants were also administered a verbal processing test.
The differential in blood alcohol content between the participants receiving DHM and nicotinamide mononucleotide and emoxypine succinate and the participants in control group were substantial as show in Table 1.

SMILES: O=C1c2c(O)cc(O)cc2O[C@H](c2cc(O)c(O)c(O)c2)[C@H]1O [DHM, (2R,3R)-3,5,7-trihydroxy-2-(3,4,5-trihydroxyphenyl)-2,3-dihydrochromen-4-one]
- time required to reach peak plasma concentration ([1]; after oral administration at a dose of 20 mg/kg): 2.67 h
- bioavailability after oral administration ([1]; rats, oral): 4.02%
- alcohol (EtOH) elimination ([2]; by increasing the activities of ADH and ALDH): promotes alcohol (EtOH) elimination
- alcohol-induced liver injuries ([2]; in vivo): ameliorates alcohol-induced liver injuries
- MEAN BAC LEVELS ([3]; elapsed time 00 h 15 m, cumulative drinks 1): 0.022%
- MEAN BAC LEVELS ([3]; elapsed time 00 h 45 m, cumulative drinks 2): 0.051%
- MEAN BAC LEVELS ([3]; elapsed time 01 h 15 m, cumulative drinks 3): 0.062%
- MEAN BAC LEVELS ([3]; elapsed time 01 h 45 m, cumulative drinks 4): 0.087%
- MEAN BAC LEVELS ([3]; elapsed time 02 h 15 m, cumulative drinks 5): 0.109%
- MEAN BAC LEVELS ([3]; elapsed time 02 h 45 m, cumulative drinks 6): 0.131%
